Assay results as given in patent publication US20090111804A1, “ARYLINDENOPYRIMIDINES AND THEIR USE AS ADENOSINE A2a” (priority 2007, published 2009).

Tests used:
A1 = target: T1, A1 (Homo sapiens, UniProt P30542); experiment: A1 cell-based functional assay
T1 sequence (P30542 1-326): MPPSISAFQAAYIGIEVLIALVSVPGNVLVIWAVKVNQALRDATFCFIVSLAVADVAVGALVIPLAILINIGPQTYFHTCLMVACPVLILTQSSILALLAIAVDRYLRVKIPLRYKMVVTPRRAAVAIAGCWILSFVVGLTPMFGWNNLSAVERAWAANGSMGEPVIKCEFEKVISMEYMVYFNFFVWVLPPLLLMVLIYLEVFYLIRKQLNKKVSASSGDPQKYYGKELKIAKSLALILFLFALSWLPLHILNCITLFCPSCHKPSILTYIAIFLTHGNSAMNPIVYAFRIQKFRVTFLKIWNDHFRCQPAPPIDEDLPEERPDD

[1] = target: T2, human adenosine A2a receptors (Homo sapiens, UniProt P29274); experiment: Adenosine A2a receptor cell-based functional assay (cAMP-inducible beta-galactosidase reporter); conditions: CHO-K1 cells overexpressing human adenosine A2a receptors; antagonist assay with 50 nM NECA
T2 construct: expressed in transfected cells; host or cells: CHO-K1
Description: Nonspecific binding was determined by […] NECA. […] Data was analyzed in Microsoft Excel and GraphPad Prism programs. […] For agonist assay, adenosine A2a receptor agonist NECA was subsequently added and cell incubated at 37° C., 5% CO2 for 5 hrs before stopping reaction. In the case of antagonist assay, cells were incubated with antagonists for 5 minutes at R.T. followed by addition of 50 nM NECA. Cells were then incubated at 37° C., 5% CO2 for 5 hrs before stopping experiments by washing cells with PBS twice. […] Color was allowed to develop at 37° C. for 1 h or until reasonable signal appeared. […] Data was analyzed in Microsoft Excel and GraphPad Prism programs.

T2 sequence (P29274 whole entry): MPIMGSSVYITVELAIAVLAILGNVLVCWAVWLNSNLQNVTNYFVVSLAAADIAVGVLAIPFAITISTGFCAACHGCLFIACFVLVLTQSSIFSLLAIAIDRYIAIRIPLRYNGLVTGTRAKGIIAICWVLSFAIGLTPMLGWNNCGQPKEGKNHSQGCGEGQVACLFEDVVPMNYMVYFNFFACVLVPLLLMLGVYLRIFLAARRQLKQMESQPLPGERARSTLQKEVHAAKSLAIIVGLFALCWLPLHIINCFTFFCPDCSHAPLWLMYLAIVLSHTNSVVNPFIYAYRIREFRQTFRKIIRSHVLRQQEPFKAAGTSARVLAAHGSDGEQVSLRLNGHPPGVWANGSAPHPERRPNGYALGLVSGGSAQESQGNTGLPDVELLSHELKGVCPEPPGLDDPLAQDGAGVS

Ki (A1) [nM]	Ki [1] [nM]	SMILES
49.6	–	Nc1nc(-c2ccccc2)c2c(n1)-c1cc(OCCN3CCOCC3)ccc1C2=O [A, 2-Amino-8-(2-morpholin-4-yl-ethoxy)-4-phenyl-indeno[1,2-d]pyrimidin-5-one]
37.3	13.1	CC1CCC(C)N1Cc1ccc2c(c1)-c1nc(N)nc(-c3ccccc3)c1C2=O (centres unmarked) [B, 2-Amino-8-(2,5-dimethyl-pyrrolidin-1-ylmethyl)-4-phenyl-indeno[1,2-d]pyrimidin-5-one]
4.4	0.4	Nc1nc(-c2ccccc2)c2c(n1)-c1cc(Cc3cccnc3)ccc1C2=O [C, 2-Amino-4-phenyl-8-pyridin-3-ylmethyl-indeno[1,2-d]pyrimidin-5-one]
